Where “and” joins values, the source holds several entries; their conditions need not be identical. Identical values can stand only once.
How the values were obtained:
[1] = biological target: H1 PA-PB1 heterodimeric complex (Influenza A virus, UniProt P15659); type: biochemical
[2] = biological target: PA-C K643A (Influenza A virus, UniProt P15659, K643A); type: binding, influenza A virus (H1)

## COc1ccc(NC(=S)NCc2cccc3cn[nH]c23)cc1OC [Compound 24, 1-[(1H-Indazol-7-yl)methyl]-3-(3,4-dimethoxyphenyl)thiourea]
[1]
  PA-PB1 complex co-immunoprecipitated compared to DMSO control: 53.5% ± 7.9% and 53.5%
[2]
  Melting temperature (Tm): 50.2 ± 1.9 °C

— PMC12254823 (Acta Pharmaceutica Sinica. B, 2025)
